# Where two headings read alike, the source gives them in different places. Starred links: 1 amine or outer side, 2 acyl side, 3 side chain; linkers in the order of their positions; H or OH if unused. Positions of bridges follow the written chain, without caps; N, C: chain ends. Non-standard residues stand in square brackets, D forms with d. Residues, ends and D or L forms follow the SMILES beside them. *: point of attachment. Arg(Me2s) = CN=C(NC)NCCC[C@H](N)C(=O)O; Lys(Me2) = CN(C)CCCC[C@H](N)C(=O)O; NMeF = CN[C@@H](Cc1ccccc1)C(=O)O; NMeGABA = CN(CCCC(=O)[*:2])[*:1]; NMeI = CC[C@H](C)[C@H](NC)C(=O)O; NMeβAla = CN(CCC(=O)[*:2])[*:1]; NMeL = CN[C@@H](CC(C)C)C(=O)O; NMeV = CN[C@H](C(=O)O)C(C)C; NMeS = CN[C@@H](CO)C(=O)O; NMeA = CN[C@@H](C)C(=O)O; Piperidide = C1CCN(*)CC1; dNMeA = CN[C@H](C)C(=O)O; β3hA = C[C@H](N)CC(=O)O; Sar = CNCC(=O)O
# Experiment: PAMPA (parallel artificial membrane permeability assay)
# Format: in vitro ADME
# Conditions: for Papp at 18 hours, 50 µM: PAMPA
# Method: 4 μL of a phospholipid-organic solvent solution composed of 10% (w/v) of egg lecithin, 0.5% (w/v) of cholesterol and dodecane (all purchased from Fluka) was added to a Millipore 96-well membrane filter (hydrophobic PVDF (polyvinylidene difluoride), pore size 0.45 microm) (purchased from Millipore Japan) to make an artificial phospholipid membrane.
# A DMSO solution containing the compound at a concentration of 10 mM was added in a percentage of 0.5% (v/v) to a 50 mM MOPSO buffer, pH 6.5, containing 5.0% (w/v) of glycocholic acid, and 330 μL of the mixture was added to a 96-well plate made of Teflon (donor plate). The above artificial phospholipid membrane plate was attached onto the donor plate, and 280 μL of a solution obtained by adding DMSO in a percentage of 0.5% (v/v) to a 50 mM MOPSO buffer, pH 6.5, containing 5.0% (w/w) of glycocholic acid was added onto the artificial phospholipid membrane (acceptor plate). These plates were allowed to stand at 37° C. for 18 hours, after which the concentrations of the compound in the solutions in the donor plate and the acceptor plate were measured by LC/MS or LC/UV, and the membrane permeation rate of the compound (Pe) was calculated by the following formulas (1) and (2), where t is the testing time, A is the membrane filter area, VD is the amount of the donor solution, VA is the amount of the acceptor solution, CD,t is the concentration of the compound in the donor solution at the time t, and CA,t is the concentration of the compound in the acceptor solution at the time t.
# [1] = membrane permeation rate (Pe), 50 mM MOPSO buffer pH 6.5 with 5.0% glycocholic acid, 37° C., 18 hours, read-out: iPAMPA Pe
SMILES,"Papp at 18 hours, 50 µM [1] [×10⁻⁶ cm/s]",other results
CC(C)C[C@H]1C(=O)N(C)[C@@H](Cc2ccccc2)C(=O)NCC(=O)N(C)[C@@H](Cc2ccccc2)C(=O)N(C)[C@@H](C)C(=O)N[C@@H]([C@@H](C)O)C(=O)N[C@H](C(=O)N(C)[C@@H](Cc2ccccc2)C(=O)N(C)[C@@H](Cc2ccccc2)C(=O)N[C@@H](C)C(=O)N2CCCCC2)CC(=O)N(C)CCC(=O)N[C@@H](C(C)C)C(=O)N1C [DP-312] ([NMeβAla]V[NMeL][NMeF]G[NMeF][NMeA]TD[NMeF][NMeF]A-Piperidide; lactam N-9),,"Papp at 18 hours, 50 µM (pH 6.5): 47 ×10⁻⁶ cm/s"
CC(C)C[C@@H]1NC(=O)[C@@H](C)N(C)C(=O)C[C@@H](C(=O)N(C)[C@@H](Cc2ccccc2)C(=O)N[C@@H](C)C(=O)N2CCCCC2)NC(=O)[C@H](Cc2ccccc2)N(C)C(=O)[C@H](CC(C)C)N(C)C(=O)[C@H](Cc2ccccc2)NC(=O)[C@H]([C@@H](C)O)NC(=O)[C@H](CC(C)C)N(C)C(=O)[C@H](CC(C)C)N(C)C1=O [DP-359] ([dNMeA]L[NMeL][NMeL]TF[NMeL][NMeF]D[NMeF]A-Piperidide; lactam N-9),43,
CC[C@H](C)[C@@H]1NC(=O)[C@H](Cc2ccccc2)N(C)C(=O)[C@H]([C@@H](C)O)NC(=O)[C@H](C)NC(=O)C[C@@H](C(=O)N(C)[C@@H](Cc2ccccc2)C(=O)N(C)[C@@H](Cc2ccccc2)C(=O)N[C@@H](C)C(=O)N2CCCCC2)NC(=O)[C@H](CC(C)C)N(C)C(=O)[C@H](CC(C)C)N(C)C(=O)[C@H](Cc2ccccc2)N(C)C(=O)[C@H](CC(C)C)N(C)C(=O)[C@H](C)N(C)C1=O [DP-286] (AT[NMeF]I[NMeA][NMeL][NMeF][NMeL][NMeL]D[NMeF][NMeF]A-Piperidide; lactam N-10),,"Papp at 18 hours, 50 µM (pH 6.5): 0.24 ×10⁻⁶ cm/s"
CC(C)C[C@@H]1NC(=O)CN(C)C(=O)[C@H](CCCCN(C)C)NC(=O)[C@H](CC(C)C)N(C)C(=O)[C@H](Cc2ccccc2)N(C)C(=O)[C@H](C)N(C)C(=O)[C@@H](C(C)C)NC(=O)C[C@@H](C(=O)N(C)[C@@H](Cc2ccccc2)C(=O)N[C@@H](C)C(=O)N2CCCCC2)NC(=O)[C@H](CC(C)C)N(C)C(=O)[C@H](CC(C)C)N(C)C1=O [DP-587] ([dV][NMeA][NMeF][NMeL][Lys(Me2)][Sar]L[NMeL][NMeL]D[NMeF]A-Piperidide; lactam N-10),3.3,
CC[C@H](C)[C@H]1C(=O)N[C@H](C(=O)N2CCCCC2)CC(=O)N(C)CC(=O)N(C)[C@@H](CC(C)C)C(=O)N[C@@H](C)C(=O)N(C)[C@@H](CC(C)C)C(=O)N(C)[C@@H](Cc2ccccc2)C(=O)N(C)[C@@H](CC(C)C)C(=O)N(C)[C@@H](Cc2ccccc2)C(=O)N[C@@H]([C@@H](C)O)C(=O)N(C)[C@@H](C)C(=O)N1C [DP-70] ([Sar][NMeL]A[NMeL][NMeF][NMeL][NMeF]T[NMeA][NMeI]D-Piperidide; lactam N-11),,"Papp at 18 hours, 50 µM (pH 6.5): 40 ×10⁻⁶ cm/s"
CC[C@H](C)[C@@H]1NC(=O)[C@H](C)N(C)C(=O)[C@H]([C@@H](C)O)NC(=O)[C@H](CC(C)C)N(C)C(=O)[C@H](Cc2ccccc2)N(C)C(=O)[C@H](C)N(C)C(=O)[C@@H](C(C)C)NC(=O)C[C@@H](C(=O)N(C)[C@@H](Cc2ccccc2)C(=O)N(C)[C@@H](Cc2ccccc2)C(=O)N[C@@H](C)C(=O)N2CCCCC2)NC(=O)[C@H](C(C)C)N(C)C(=O)[C@H](CC(C)C)N(C)C1=O [DP-510] ([dV][NMeA][NMeF][NMeL]T[NMeA]I[NMeL][NMeV]D[NMeF][NMeF]A-Piperidide; lactam N-10),2.2,
CC[C@H](C)[C@H](NC(=O)[C@H](C)N(C)C(=O)[C@@H](NC(=O)[C@H](Cc1ccccc1)N(C)C(=O)[C@H](CC(C)C)N(C)C(=O)[C@@H]1CC(=O)N[C@H](C)C(=O)N[C@@H](C(C)C)C(=O)N(C)[C@@H](Cc2ccccc2)C(=O)N(C)[C@@H](CC(C)C)C(=O)N(C)[C@@H](C)C(=O)N[C@@H]([C@@H](C)O)C(=O)N[C@@H](Cc2ccccc2)C(=O)N1)C(C)C)C(=O)N1CCCCC1 [DP-570] ([dA]V[NMeF][NMeL][NMeA]TFD[NMeL][NMeF]V[NMeA]I-Piperidide; lactam N-8),2.1,
CC(C)C[C@@H]1NC(=O)[C@H](CC(C)C)N(C)C(=O)[C@H](C(C)C)NC(=O)C[C@H](C)NC(=O)CN(C)C(=O)[C@H](CC(C)C)NC(=O)[C@H](CO)N(C)C(=O)[C@H](CC(C)C)N(C)C(=O)[C@H](CC(C)C)N(C)C(=O)[C@H](CC(C)C)N(C)C(=O)[C@@H](CC(C)C)NC1=O [DP-640] (cyclo(L[Sar][β3hA]V[NMeL]L[dL][NMeL][NMeL][NMeL][NMeS])),50,
CC[C@H](C)[C@@H]1NC(=O)[C@H](C)N(C)C(=O)[C@H]([C@@H](C)O)NC(=O)[C@H](CC(C)C)N(C)C(=O)[C@H](Cc2ccccc2)NC(=O)[C@H](C(C)C)N(C)C(=O)[C@H](CC(C)C)N(C)C(=O)[C@H](C)N(C)C(=O)C[C@@H](C(=O)N(C)[C@@H](Cc2ccccc2)C(=O)N[C@@H](C)C(=O)N2CCCCC2)NC(=O)[C@H](CC(C)C)N(C)C1=O [DP-376] ([NMeA][NMeL][NMeV]F[NMeL]T[NMeA]I[NMeL]D[NMeF]A-Piperidide; lactam N-10),29,
CC[C@H](C)[C@@H]1NC(=O)[C@H](CC(C)C)N(C)C(=O)[C@H](Cc2ccccc2)N(C)C(=O)[C@H]([C@@H](C)O)NC(=O)[C@H](C)N(C)C(=O)CCCN(C)C(=O)C[C@@H](C(=O)N(C)[C@@H](Cc2ccccc2)C(=O)N[C@@H](C)C(=O)N2CCCCC2)NC(=O)[C@H](CC(C)C)N(C)C(=O)[C@H](Cc2ccccc2)N(C)C(=O)[C@H](CC(C)C)N(C)C1=O [DP-373] ([NMeGABA][NMeA]T[NMeF][NMeL]I[NMeL][NMeF][NMeL]D[NMeF]A-Piperidide; lactam N-10),9.2,
CC(C)C[C@@H]1NC(=O)[C@H](Cc2ccccc2)N(C)C(=O)CCN(C)C(=O)C[C@@H](C(=O)N2CCCCC2)NC(=O)[C@H](Cc2ccccc2)N(C)C(=O)[C@H](C)N(C)C(=O)[C@H]([C@@H](C)O)NC(=O)CN(C)C(=O)[C@H](C(C)C)N(C)C(=O)[C@H](C)NC(=O)[C@H](C(C)C)N(C)C(=O)[C@H](CC(C)C)N(C)C1=O [DP-318] ([NMeβAla][NMeF]L[NMeL][NMeV]A[NMeV][Sar]T[NMeA][NMeF]D-Piperidide; lactam N-12),26,
CC(C)C[C@H]1C(=O)N[C@H](C(=O)N(C)[C@@H](Cc2ccccc2)C(=O)N(C)[C@@H](Cc2ccccc2)C(=O)N[C@@H](C)C(=O)N2CCCCC2)CC(=O)N(C)[C@@H](C)C(=O)N(C)[C@@H](C)C(=O)N(C)[C@@H](Cc2ccccc2)C(=O)N[C@@H]([C@@H](C)O)C(=O)N(C)[C@@H](C)C(=O)N(C)[C@@H](CC(C)C)C(=O)N(C)[C@@H](CC(C)C)C(=O)N[C@@H](C(C)C)C(=O)N1C [DP-206] ([NMeA][NMeA][NMeF]T[NMeA][NMeL][NMeL]V[NMeL]D[NMeF][NMeF]A-Piperidide; lactam N-10),9,
C/N=C(\NC)NCCC[C@@H]1NC(=O)[C@H](Cc2ccccc2)N(C)C(=O)[C@H](CC(C)C)NC(=O)[C@H](CC(C)C)N(C)C(=O)[C@H](Cc2ccccc2)NC(=O)[C@H](CC(C)C)N(C)C(=O)[C@H](CC(C)C)N(C)C(=O)[C@H](Cc2ccccc2)NC(=O)CN(C)C(=O)C[C@@H](C(=O)N(C)[C@@H](Cc2ccccc2)C(=O)N[C@@H](C)C(=O)N2CCCCC2)NC(=O)[C@H](CC(C)C)NC1=O [DP-598] ([Sar]F[NMeL][NMeL]F[NMeL]L[NMeF][Arg(Me2s)]LD[NMeF]A-Piperidide; lactam N-11),,"iPAMPA Pe (membrane permeation rate (Pe), 50 mM MOPSO buffer pH 6.5 with 5.0% glycocholic acid, 37° C., 18 hours): 1.0E−07"
CC(C)C[C@@H]1NC(=O)[C@H](CCC(=O)O)NC(=O)[C@H](Cc2ccccc2)N(C)C(=O)[C@H](CC(C)C)NC(=O)[C@H](CC(C)C)N(C)C(=O)[C@H](Cc2ccccc2)NC(=O)[C@H](CC(C)C)N(C)C(=O)[C@H](CC(C)C)N(C)C(=O)[C@H](Cc2ccccc2)NC(=O)CN(C)C(=O)C[C@@H](C(=O)N(C)[C@@H](Cc2ccccc2)C(=O)N[C@@H](C)C(=O)N2CCCCC2)NC1=O [DP-596] ([Sar]F[NMeL][NMeL]F[NMeL]L[NMeF]ELD[NMeF]A-Piperidide; lactam N-11),,"Papp at 18 hours, 50 µM (pH 6.5): 3.2 ×10⁻⁶ cm/s"
CC(C)C[C@@H]1NC(=O)[C@H](CCCCN(C)C)NC(=O)[C@H](Cc2ccccc2)N(C)C(=O)[C@H](CC(C)C)NC(=O)[C@H](CC(C)C)N(C)C(=O)[C@H](Cc2ccccc2)NC(=O)[C@H](CC(C)C)N(C)C(=O)[C@H](CC(C)C)N(C)C(=O)[C@H](Cc2ccccc2)NC(=O)CN(C)C(=O)C[C@@H](C(=O)N(C)[C@@H](Cc2ccccc2)C(=O)N[C@@H](C)C(=O)N2CCCCC2)NC1=O [DP-594] ([Sar]F[NMeL][NMeL]F[NMeL]L[NMeF][Lys(Me2)]LD[NMeF]A-Piperidide; lactam N-11),1.3,
CC(C)C[C@H]1C(=O)N(C)[C@@H](CC(C)C)C(=O)N(C)[C@@H](Cc2ccccc2)C(=O)N[C@@H]([C@@H](C)O)C(=O)N(C)[C@@H](C)C(=O)N(C)[C@@H](CC(C)C)C(=O)N(C)[C@@H](Cc2ccccc2)C(=O)N[C@H](C(=O)N(C)[C@@H](Cc2ccccc2)C(=O)N[C@@H](C)C(=O)N2CCCCC2)CC(=O)N(C)[C@H](C)C(=O)N(C)[C@@H](CC(C)C)C(=O)N[C@@H](C)C(=O)N1C [DP-184] ([dNMeA][NMeL]A[NMeL][NMeL][NMeF]T[NMeA][NMeL][NMeF]D[NMeF]A-Piperidide; lactam N-11),1.3,
